Measurements as given in patent US6514911B1, “Substituted oxadiazines useful as pesticides” (Uniroyal Chemical Company, Inc., priority 2002, dated 2003).

What was measured:
[1] = tested on: green foxtail (Setaria virdis (L.) Beauv.) (GF); assay: Preemergence herbicide test, soil drench, green foxtail; assay type: in vivo; settings: 10 lbs/A (11.2 kg/ha) soil drench, two weeks after treatment, vs untreated checks; for pest or weed control at 11208.5 g/ha: Setaria, 336 h, read-out: Percent Weed Control GF
Experimental: To illustrate the effectiveness of the previously described substituted oxadiazines of this invention as preemergence herbicides, 300 mg of the chemical was dissolved in a composition comprising 10 mL acetone to which 30 mg of tile emulsifying agent, ethoxylated sorbitan monolaurate, was added. The solution was diluted to 100 mL with distilled water. Ten milliliters of this 3000 ppm solution was diluted to 250 ppm with distilled water. The chemical was applied at the rate of 10 pounds/acre (11.2 kg/ha) by drenchings 46 mL of the 250 ppm solution on the surface of soil in 41⁄2 inch (11.25 cm) plastic pots wherein seeds of the following weeds had been planted: green foxtail (Setaria […].) Beauv.) (GF). The percent control of the weeds compared to untreated checks was determined two weeks after treatment. TABLE 1 summarizes the results achieved with compounds formulated as indicated above, and the data clearly indicate the good to excellent herbicidal efficacy of compositions of this invention.

[2] = tested on: switchgrass (Panicum virgahim L.) (SG); assay: Preemergence herbicide test, soil drench, switchgrass; assay type: in vivo; settings: 10 lbs/A (11.2 kg/ha) soil drench, two weeks after treatment, vs untreated checks; for pest or weed control at 11208.5 g/ha: Panicum, 336 h, read-out: Percent Weed Control SG
Experimental: (§1) To illustrate the effectiveness of the previously described substituted oxadiazines of this invention as preemergence herbicides, 300 mg of the chemical was dissolved in a composition comprising 10 mL acetone to which 30 mg of tile emulsifying agent, ethoxylated sorbitan monolaurate, was added. The solution was diluted to 100 mL with distilled water. Ten milliliters of this 3000 ppm solution was diluted to 250 ppm with distilled water. The chemical was applied at the rate of 10 pounds/acre (11.2 kg/ha) by drenchings 46 mL of the 250 ppm solution on the surface of soil in 4½ inch (11.25 cm) plastic pots wherein seeds of the following weeds had been planted:
switchgrass (Panicum virgahim L.) (SG),
(§2) The percent control of the weeds compared to untreated checks was determined two weeks after treatment. TABLE 1 summarizes the results achieved with compounds formulated as indicated above, and the data clearly indicate the good to excellent herbicidal efficacy of compositions of this invention.

[3] = tested on: jimsonweed (Datura stramonium L.) (JW); assay: Preemergence herbicide test, soil drench, jimsonweed; assay type: in vivo; settings: 10 lbs/A (11.2 kg/ha) soil drench, two weeks after treatment, vs untreated checks
Experimental: (§3) To illustrate the effectiveness of the previously described substituted oxadiazines of this invention as preemergence herbicides, 300 mg of the chemical was dissolved in a composition comprising 10 mL acetone to which 30 mg of tile emulsifying agent, ethoxylated sorbitan monolaurate, was added. The solution was diluted to 100 mL with distilled water. Ten milliliters of this 3000 ppm solution was diluted to 250 ppm with distilled water. The chemical was applied at the rate of 10 pounds/acre (11.2 kg/ha) by drenchings 46 mL of the 250 ppm solution on the surface of soil in 4½ inch (11.25 cm) plastic pots wherein seeds of the following weeds had been planted: jimsonweed (Datura stramonium L.) (JW), The percent control of the weeds compared to untreated checks was determined two weeks after treatment. TABLE 1 summarizes the results achieved with compounds formulated as indicated above, and the data clearly indicate the good to excellent herbicidal efficacy of compositions of this invention.

[4] = tested on: barnyardgrass (Echinochloa crus-galli (L.) Beauv.) (BG); assay: Preemergence herbicide test, soil drench, barnyardgrass; assay type: in vivo; settings: 10 lbs/A (11.2 kg/ha) soil drench, two weeks after treatment, vs untreated checks; for pest or weed control at 11208.5 g/ha: Echinochloa crus-galli, 336 h, read-out: Percent Weed Control BG
Experimental: as §3, with “barnyardgrass (Echinochloa crus-galli (L.) Beauv.) (BG), and” for “jimsonweed (Datura stramonium L.) (JW),”

[5] = tested on: tall morningglory (Ipomoea purpurea (L.) Roth) (TM); assay: Preemergence herbicide test, soil drench, tall morningglory; assay type: in vivo; settings: 10 lbs/A (11.2 kg/ha) soil drench, two weeks after treatment, vs untreated checks; for pest or weed control at 11208.5 g/ha: Ipomoea, 336 h, read-out: Percent Weed Control TM
Experimental: as §3, with “tall morningglory (Ipomoea purpurea (L.) Roth) (TM),” for “jimsonweed (Datura stramonium L.) (JW),”

[6] = tested on: velvetleaf (Abutilon theophrasti Medik.) (VL); assay: Preemergence herbicide test, soil drench, velvetleaf; assay type: in vivo; settings: 10 lbs/A (11.2 kg/ha) soil drench, two weeks after treatment, vs untreated checks; for pest or weed control at 11208.5 g/ha: Abutilon theophrasti, 336 h, read-out: Percent Weed Control VL
Experimental: as §3, with “velvetleaf (Abutilon theophrasti Medik.) (VL),” for “jimsonweed (Datura stramonium L.) (JW),”

insects = assay: Insecticidal properties (no method given); settings: statement in words, no test details
[7] = tested on: prickly sida (Sida spinosa L.) (PS); assay: Preemergence herbicide test, soil drench, prickly sida; assay type: in vivo; settings: Sida spinosa, 336 h, 10 lbs/A (11.2 kg/ha) soil drench, two weeks after treatment, vs untreated checks, read-out: Percent Weed Control PS
Experimental: as §1, with “The chemical was applied at the rate of 10 pounds/acre (11.2 kg/ha) by drenchings 46 mL of the 250 ppm solution on the surface of soil in 4½ inch (11.25 cm) plastic pots wherein seeds of the following weeds had been planted:” left out
prickly sida (Sida spinosa L.) (PS),
as §2

FC(F)(F)C(F)(F)C(F)(F)C1=NC(C(F)(F)F)(C(F)(F)F)N=C(c2cccc(Cl)c2)O1 [Compound 26, 2-(3-chlorophenyl)-6-(heptafluoropropyl)-4,4-bis(trifluoromethyl)-4H-1,3,5-oxadiazine]
found to have insecticidal properties: insecticidal properties (insects)
100%: pest or weed control at 11208.5 g/ha [1] | pest or weed control at 11208.5 g/ha [2] | Percent Weed Control JW [3] | pest or weed control at 11208.5 g/ha [4] | pest or weed control at 11208.5 g/ha [5] | pest or weed control at 11208.5 g/ha [6]

FC(F)(F)c1cccc(C2=NC(C(F)(F)F)(C(F)(F)F)N=C(C(F)(F)C(F)(F)F)O2)c1 [Compound 14, 2-(pentafluoroethyl)-4,4-bis(trifluoromethyl)-6-{(3-trifluoromethyl)phenyl}-4H-1,3,5-oxadiazine]
found to have insecticidal properties: insecticidal properties (insects)
100%: Percent Weed Control GF [1] | Percent Weed Control SG [2] | Percent Weed Control JW [3] | Percent Weed Control BG [4] | Percent Weed Control TM [5] | Percent Weed Control VL [6]

FC(F)(F)C(F)(F)C(F)(F)C1=NC(C(F)(F)F)(C(F)(F)F)N=C(c2ccccc2)O1 [2-(heptafluoropropyl)-6-phenyl-4,4-bis(trifluoromethyl)-4H-1,3,5-oxadiazine, reference compound]
0%: pest or weed control at 11208.5 g/ha [1] | pest or weed control at 11208.5 g/ha [2] | Percent Weed Control JW [3] | pest or weed control at 11208.5 g/ha [7] | pest or weed control at 11208.5 g/ha [4] | pest or weed control at 11208.5 g/ha [5] | pest or weed control at 11208.5 g/ha [6]

Cc1cccc(C2=NC(C(F)(F)F)(C(F)(F)F)N=C(C(F)(F)C(F)(F)F)O2)c1 [Compound 22, 2-(3-methylphenyl)-6-(pentafluoroethyl)-4,4-bis(trifluoromethyl)-4H-1,3,5-oxadiazine]
0%: pest or weed control at 11208.5 g/ha [2] | pest or weed control at 11208.5 g/ha [4] | pest or weed control at 11208.5 g/ha [5]
100%: Percent Weed Control JW [3] | pest or weed control at 11208.5 g/ha [6]
50%: pest or weed control at 11208.5 g/ha [1]

COc1cccc(C2=NC(C(F)(F)F)(C(F)(F)F)N=C(C(F)(F)C(F)(F)F)O2)c1 [Compound 23, 2-(3-methoxyphenyl)-6-(pentafluoroethyl)-4,4-bis(trifluoromethyl)-4H-1,3,5-oxadiazine]
50%: pest or weed control at 11208.5 g/ha [1] | pest or weed control at 11208.5 g/ha [2]
0%: pest or weed control at 11208.5 g/ha [4]
100%: Percent Weed Control JW [3] | pest or weed control at 11208.5 g/ha [5] | pest or weed control at 11208.5 g/ha [6]

FC(F)(F)Oc1ccc(C2=NC(C(F)(F)F)(C(F)(F)F)N=C(C(F)(F)C(F)(F)F)O2)cc1 [Compound 16, 2-(pentafluoroethyl)-6-{(4-trifluoromethoxy)phenyl}-4,4-bis(trifluoromethyl)-4H-1,3,5-oxadiazine]
100%: Percent Weed Control GF [1] | Percent Weed Control SG [2] | Percent Weed Control JW [3] | Percent Weed Control BG [4] | Percent Weed Control TM [5] | Percent Weed Control VL [6]
found to have insecticidal properties: insecticidal properties (insects)

FC(F)(F)C(F)(F)C1=NC(C(F)(F)F)(C(F)(F)F)N=C(c2cc(Cl)cc(Cl)c2)O1 [Compound 21, 2-(3,5-dichlorophenyl)-6-(pentafluoroethyl)-4,4-bis(trifluoromethyl)-4H-1,3,5-oxadiazine]
100%: pest or weed control at 11208.5 g/ha [1] | pest or weed control at 11208.5 g/ha [2] | Percent Weed Control JW [3] | pest or weed control at 11208.5 g/ha [4] | pest or weed control at 11208.5 g/ha [5] | pest or weed control at 11208.5 g/ha [6]
